# Test results reported in ChEMBL document CHEMBL4145597, “BMS-986163, a Negative Allosteric Modulator of GluN2B with Potential Utility in Major Depressive Disorder” (ACS Med Chem Lett, 2018).
# The source made the active and inactive calls. No cut-off for these calls is given here.
# Key:
# [1] = biological target: Glutamate receptor ionotropic, NMDA 2B (Rattus norvegicus, UniProt Q00960); test: Displacement of [3H]Ro 25-6981 from GluN2B receptor in Sprague-Dawley rat forebrain membranes incubated for 1 hr by topcount micro scintillation counting method; parameters: species or system Membrane
# Mus musculus = test: Ex vivo receptor occupancy at GluN2B receptor in CD-1 mouse forebrain membranes assessed as reduction in [3H]Ro 25-6981 receptor labeling at 3 mg/kg, iv incubated for 5 mins by topcount micro scintillation counting method; type: functional
# [2] = Plasma concentration in CD-1 mouse at 0.1 to 1 mg/kg, iv; type: ADME, organism-based; conditions: in vivo
# [3] = biological target: Voltage-gated inwardly rectifying potassium channel KCNH2 (Homo sapiens, UniProt Q12809); test: Inhibition of human ERG expressed in HEK293 cells assessed as reduction in peak tail current after 2 to 5 mins by patch clamp based electrophysiology assay; type: cell-based
# Sequence of Voltage-gated inwardly rectifying potassium channel KCNH2 (Q12809 whole entry): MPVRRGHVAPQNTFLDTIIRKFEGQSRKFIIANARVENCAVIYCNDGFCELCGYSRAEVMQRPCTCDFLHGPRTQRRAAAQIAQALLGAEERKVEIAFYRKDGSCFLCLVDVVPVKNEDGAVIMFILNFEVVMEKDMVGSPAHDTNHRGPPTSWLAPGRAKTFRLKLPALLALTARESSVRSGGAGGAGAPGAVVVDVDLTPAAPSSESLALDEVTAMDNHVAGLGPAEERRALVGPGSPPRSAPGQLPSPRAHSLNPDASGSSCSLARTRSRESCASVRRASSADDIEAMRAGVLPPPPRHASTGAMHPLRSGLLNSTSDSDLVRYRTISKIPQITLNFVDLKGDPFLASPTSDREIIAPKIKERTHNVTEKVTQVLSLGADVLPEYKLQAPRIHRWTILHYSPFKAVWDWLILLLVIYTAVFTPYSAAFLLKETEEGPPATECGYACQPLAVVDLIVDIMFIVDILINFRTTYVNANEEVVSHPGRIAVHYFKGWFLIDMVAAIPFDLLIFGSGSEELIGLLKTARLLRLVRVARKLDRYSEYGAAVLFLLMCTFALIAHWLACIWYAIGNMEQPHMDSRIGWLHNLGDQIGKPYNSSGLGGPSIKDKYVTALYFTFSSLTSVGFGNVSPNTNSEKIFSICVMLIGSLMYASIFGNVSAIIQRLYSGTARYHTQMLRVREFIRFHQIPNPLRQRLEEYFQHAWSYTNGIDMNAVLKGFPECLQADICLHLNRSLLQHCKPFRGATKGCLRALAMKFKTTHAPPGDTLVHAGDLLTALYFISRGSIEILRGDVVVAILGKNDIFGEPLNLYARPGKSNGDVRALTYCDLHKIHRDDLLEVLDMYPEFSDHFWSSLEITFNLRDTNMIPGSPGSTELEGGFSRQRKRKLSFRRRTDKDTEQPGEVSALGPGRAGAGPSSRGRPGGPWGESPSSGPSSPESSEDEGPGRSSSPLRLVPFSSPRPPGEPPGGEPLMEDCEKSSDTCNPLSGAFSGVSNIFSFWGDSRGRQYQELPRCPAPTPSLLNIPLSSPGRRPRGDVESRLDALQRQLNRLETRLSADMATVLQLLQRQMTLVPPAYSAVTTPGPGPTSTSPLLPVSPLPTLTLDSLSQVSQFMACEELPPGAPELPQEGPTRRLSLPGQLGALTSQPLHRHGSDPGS
# [4] = biological target: Glutamate receptor ionotropic, NMDA 2A (Homo sapiens) (UniProt Q12879); test: Negative allosteric modulation of human GluN2A receptor expressed in Xenopus laevis oocytes assessed as inhibition of glutamate/glycine-induced channel current at 3 uM after 10 to 15 mins by two electrode voltage clamp based electrophysiology assay; type: cell-based
# [5] = biological target: Glutamate receptor ionotropic, NMDA 2C (Homo sapiens) (UniProt Q14957); test: Negative allosteric modulation of human GluN2C receptor expressed in Xenopus laevis oocytes assessed as inhibition of glutamate/glycine-induced channel current at 3 uM after 10 to 15 mins by two electrode voltage clamp based electrophysiology assay; type: cell-based
# Sequence of Glutamate receptor ionotropic, NMDA 2C (Homo sapiens) (Q14957 whole entry): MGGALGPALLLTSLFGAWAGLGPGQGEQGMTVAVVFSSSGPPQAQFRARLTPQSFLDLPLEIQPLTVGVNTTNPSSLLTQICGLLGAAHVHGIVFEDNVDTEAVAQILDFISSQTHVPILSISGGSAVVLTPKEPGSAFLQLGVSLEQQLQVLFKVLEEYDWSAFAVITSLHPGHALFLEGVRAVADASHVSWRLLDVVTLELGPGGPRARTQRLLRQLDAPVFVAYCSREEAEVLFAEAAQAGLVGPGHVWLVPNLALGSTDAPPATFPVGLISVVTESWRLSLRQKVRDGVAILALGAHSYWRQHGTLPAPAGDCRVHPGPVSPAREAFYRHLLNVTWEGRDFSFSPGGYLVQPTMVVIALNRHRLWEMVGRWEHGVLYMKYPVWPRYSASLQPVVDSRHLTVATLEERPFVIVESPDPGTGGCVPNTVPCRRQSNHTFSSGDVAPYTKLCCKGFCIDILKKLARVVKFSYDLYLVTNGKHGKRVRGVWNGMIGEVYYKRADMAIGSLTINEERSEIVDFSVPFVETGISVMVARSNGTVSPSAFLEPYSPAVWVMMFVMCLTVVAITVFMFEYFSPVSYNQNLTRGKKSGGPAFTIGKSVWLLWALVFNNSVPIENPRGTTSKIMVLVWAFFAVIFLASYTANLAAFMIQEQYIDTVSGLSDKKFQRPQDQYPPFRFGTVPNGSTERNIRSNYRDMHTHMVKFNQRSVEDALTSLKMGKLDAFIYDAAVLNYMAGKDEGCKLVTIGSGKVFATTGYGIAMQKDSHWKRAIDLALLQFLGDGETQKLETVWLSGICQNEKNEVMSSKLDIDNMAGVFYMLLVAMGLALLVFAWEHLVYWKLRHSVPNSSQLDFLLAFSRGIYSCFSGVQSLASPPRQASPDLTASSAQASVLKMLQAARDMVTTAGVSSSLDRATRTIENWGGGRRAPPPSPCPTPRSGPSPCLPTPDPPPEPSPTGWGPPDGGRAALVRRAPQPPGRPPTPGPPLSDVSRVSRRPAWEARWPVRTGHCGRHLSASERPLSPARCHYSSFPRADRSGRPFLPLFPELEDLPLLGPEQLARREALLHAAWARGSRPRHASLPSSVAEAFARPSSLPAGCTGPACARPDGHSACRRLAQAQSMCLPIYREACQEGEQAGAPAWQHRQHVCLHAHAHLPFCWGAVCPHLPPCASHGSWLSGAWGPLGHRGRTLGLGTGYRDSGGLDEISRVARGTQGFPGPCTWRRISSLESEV
# [6] = biological target: Glutamate receptor ionotropic, NMDA 2D (Homo sapiens) (UniProt O15399); test: Negative allosteric modulation of human GluN2D receptor expressed in Xenopus laevis oocytes assessed as inhibition of glutamate/glycine-induced channel current at 3 uM after 10 to 15 mins by two electrode voltage clamp based electrophysiology assay; type: cell-based
# [7] = biological target: Glutamate receptor ionotropic, NMDA 2B (Homo sapiens, UniProt Q13224); test: Negative allosteric modulation of human GluN2B receptor expressed in Xenopus laevis oocytes assessed as inhibition of glutamate/glycine-induced channel current after 15 to 20 mins by two electrode voltage clamp based electrophysiology assay; type: cell-based
# Sequence of Glutamate receptor ionotropic, NMDA 2B (Homo sapiens, UniProt Q13224) (Q13224 27-1484 limits assumed): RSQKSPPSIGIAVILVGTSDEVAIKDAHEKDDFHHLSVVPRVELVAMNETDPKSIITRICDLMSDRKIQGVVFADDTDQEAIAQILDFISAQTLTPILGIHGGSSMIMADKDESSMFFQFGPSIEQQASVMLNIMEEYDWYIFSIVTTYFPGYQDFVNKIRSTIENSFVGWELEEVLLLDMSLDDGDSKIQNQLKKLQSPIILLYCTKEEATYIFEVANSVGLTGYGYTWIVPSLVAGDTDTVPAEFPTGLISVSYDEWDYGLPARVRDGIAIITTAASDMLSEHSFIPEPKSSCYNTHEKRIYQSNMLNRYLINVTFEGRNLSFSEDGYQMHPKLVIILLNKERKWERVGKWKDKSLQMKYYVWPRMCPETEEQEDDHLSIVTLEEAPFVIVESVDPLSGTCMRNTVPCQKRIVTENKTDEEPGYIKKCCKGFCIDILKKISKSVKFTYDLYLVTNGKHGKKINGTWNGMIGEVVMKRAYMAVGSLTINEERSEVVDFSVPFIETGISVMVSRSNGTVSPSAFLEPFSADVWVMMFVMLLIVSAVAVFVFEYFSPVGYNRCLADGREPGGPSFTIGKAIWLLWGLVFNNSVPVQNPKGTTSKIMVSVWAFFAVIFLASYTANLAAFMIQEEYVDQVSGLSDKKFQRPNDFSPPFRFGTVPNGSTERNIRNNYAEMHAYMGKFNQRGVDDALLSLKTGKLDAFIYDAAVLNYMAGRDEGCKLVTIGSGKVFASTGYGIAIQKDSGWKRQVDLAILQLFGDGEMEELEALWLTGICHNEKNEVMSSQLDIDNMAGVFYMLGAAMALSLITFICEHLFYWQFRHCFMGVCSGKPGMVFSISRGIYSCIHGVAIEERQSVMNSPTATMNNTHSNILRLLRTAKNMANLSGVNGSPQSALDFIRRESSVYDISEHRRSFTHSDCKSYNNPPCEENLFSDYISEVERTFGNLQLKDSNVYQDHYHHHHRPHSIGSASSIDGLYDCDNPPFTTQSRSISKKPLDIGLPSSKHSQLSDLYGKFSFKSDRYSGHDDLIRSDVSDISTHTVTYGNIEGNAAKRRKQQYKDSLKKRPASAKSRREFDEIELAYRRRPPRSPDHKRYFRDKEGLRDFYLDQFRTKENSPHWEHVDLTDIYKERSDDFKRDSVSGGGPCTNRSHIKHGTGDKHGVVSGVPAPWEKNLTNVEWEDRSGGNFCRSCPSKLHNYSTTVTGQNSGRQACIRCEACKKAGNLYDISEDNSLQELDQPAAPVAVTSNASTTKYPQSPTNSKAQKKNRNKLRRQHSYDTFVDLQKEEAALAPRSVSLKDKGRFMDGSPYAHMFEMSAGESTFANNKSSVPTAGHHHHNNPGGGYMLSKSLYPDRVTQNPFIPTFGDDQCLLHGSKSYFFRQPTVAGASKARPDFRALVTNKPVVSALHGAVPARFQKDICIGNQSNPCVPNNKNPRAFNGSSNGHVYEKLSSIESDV
# Rhesus monkey [8] = test: Toxicity in monkey at 3.6 to 36 mg/kg, iv administered as single dose; type: organism-based, Macaca mulatta; conditions: in vivo
# [9] = Stability of the compound in aqueous solution at 25 degC up to 90 days; type: physicochemical; conditions: buffer, 2160 h
# Rhesus monkey [10] = test: Cmax in monkey at 36 mg/kg, iv assessed as BMS-986169 level in plasma; type: ADME, organism-based, Macaca mulatta; parameters: dose 36 mg/kg, route intravenous; conditions: in vivo
# [11] = Stability of the compound at 50 degC up to 4 weeks using solid state compound; type: physicochemical; conditions: 672 h
# [12] = Aqueous solubility of the compound at pH 7.4; type: physicochemical; conditions: aqueous medium
# Rattus norvegicus [13] = test: Toxicity in rat assessed as histopathological observations at 10 to 100 mg/kg/day administered iv; type: organism-based; conditions: in vivo
# Rattus norvegicus [14] = test: Toxicity in rat assessed as clinical pathological observations at 10 to 100 mg/kg/day administered iv; type: organism-based; conditions: in vivo
Structure (SMILES),concentration [2] [nM],inhibition [4],inhibition [5],inhibition [6],inhibition [7],Occ (Mus musculus) [%],IC50 [3] [µM],other results
O=C1NCC[C@H]1N1CC[C@@H](c2ccc(O)cc2)[C@H](F)C1,,inactive,inactive,inactive,inactive,,,
Cc1ccc(CN2CC[C@@H](N3CC[C@@H](c4ccc(OP(=O)(O)O)cc4)[C@H](F)C3)C2=O)cc1,,,,,,,,Activity (Rhesus monkey [8]): Non-Toxic; Stability [9]: Stable; Cmax (Rhesus monkey [10]): 19000 nM; Stability [11]: Stable; solubility [12]: 19.9 mg/mL; Activity (Rattus norvegicus [13]): Non-Toxic; Activity (Rattus norvegicus [14]): Non-Toxic
O=C(O)c1ccc(CN2CC[C@@H](N3CC[C@@H](c4ccc(O)cc4)[C@H](F)C3)C2=O)cc1,,inactive,inactive,inactive,inactive,,,

# Second part, led by results:
concentration [2] [nM],inhibition [4],inhibition [5],inhibition [6],inhibition [7],Structure (SMILES),Occ (Mus musculus) [%],IC50 [3] [µM],other results
1200,,,,,O=C1[C@H](N2CC[C@@H](c3ccc(O)cc3)[C@H](F)C2)CCN1Cc1ccc(F)cc1,81,> 5,Ki [1]: 0.011 µM
590,,,,,Cc1ccc(CN2CC[C@@H](N3CC[C@H](c4ccc(O)cc4)[C@H](F)C3)C2=O)cc1,95,7.8,
